# Measured values: PubChem BioAssay AID540306 (Sanford-Burnham Center for Chemical Genomics, 2011)
# The source made the active and inactive calls.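 How the source made its calls: active means mean EC50 of 20 µM or lower; inactive means the rest.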
# Target: CHO-CHOP luciferase reporter, UPR apoptotic arm activation
# Experiment: CHOP luciferase reporter activation – CHO-CHOP cells, luminescence, counter-screen for UPR adaptive arm activator project, SAR follow-up (AID 540306)
row,EC50,SMILES
1,> 80 µM (inactive),COc1cc(-c2ccccc2)nc(Nc2nc(C)c3ccccc3n2)n1
2,> 80 µM (inactive),Cc1nc(Nc2nc(-c3ccccc3)cc(=O)[nH]2)nc2ccccc12
3,> 80 µM (inactive),Cc1cc(=O)[nH]c(Nc2nc(C)c3ccccc3n2)n1
4,> 80 µM (inactive),Cc1nc(Nc2ncccn2)nc2ccccc12
5,> 80 µM (inactive),Cc1ccnc(Nc2ncccn2)n1
6,inactive,Cc1nc(Nc2nccc(-c3ccccc3)n2)nc2ccccc12
7,> 80 µM (inactive),Cc1ccnc(Nc2nc(-c3ccccc3)cc(=O)[nH]2)n1
8,> 80 µM (inactive),Cc1cc(-c2ccccc2)nc(Nc2nc(C)c3ccccc3n2)n1
